Source: patent US11299496B2, “Ligands for alpha-7 nicotinic acetylcholine receptors and methods of treating neurological and inflammatory conditions” (Northeastern University, priority 2014, dated 2022)

Molecular target: T1, human alpha-7 nAChR (Homo sapiens, UniProt P36544)
T1 construct: expressed in transfected cells; host or cells: Xenopus laevis oocytes (cRNA injection)
Assay: Two-electrode voltage clamp of alpha-7 nAChR expressed in Xenopus oocytes (net charge)
Format: cell-based
Conditions: for Charge Alone: compound alone acting as an allosteric agonist; for Charge Alone / Charge +C: area under the curve of current vs. time; for Charge +C: compound together with choline or ACh, includes PAM and ago-PAM activity; call rule not given here
Experimental: The human alpha-7 nAChR receptor clone was obtained from Dr. Jon Lindstrom {University of Pennsylvania, Philadelphia, Pa.), aid the RIC-3 clone from Dr. Millet Treinin (Hebrew University, Jerusalem, Israel) for the purpose of co-injection with a7 to improve the level and speed of receptor expression (Halevi et al., 2003). After linearization and purification of cloned cDNA's, RNA, transcripts were prepared rising the appropriate mMessage mMachine kit tiom Ambion (Austin, Tex.).
Expression in X, laeivis Oocytes
Oocytes were obtained from mature (>9 cm) female Xenopus laeivis African frogs (Nasco, Ft. Atkinson, Wis.). Frogs were anesthetized in 0.7 g/L solution of ethyl 3-aminobenzoate methanesulfonate buffered with sodium bicarbonate, and oocytes were surgically removed through an abdominal incision. Harvested oocytes were treated with 1.25 mg/ml collagenase (Worthington Biochemicals, Freehold, N.J.) in calcium-free Barth's solution (88 mM NaCl, 1 mM KCl, 2.38 mM NaHCO3, 0.82 mM MgSO4, 15 mM HEPES, 12 mg/L tetracycline, pH 7.6) for 3-4 hours to remove the follicular layer. Stage-5 oocytes were isolated and injected with 50 nL (5-20 ng) of human alpha-7 and RIC-3 cRNA. Suitable levels of receptor expression were typically achieved 2-6 days after injection of cRNA. For experiments involving the PAM 4BP-TQS/GAT-107, where standard levels of expression result in ion currents too large to be recorded in voltage clamp, experiments were typically conducted 1-3 days after RNA injection.
Two-electrode voltage clamp experiments were conducted using OpusXpress6000A (Molecular Devices, Sunnyvale, Calif.), an integrated system that provides automated impalement and voltage clamp of up to eight oocytes in parallel. Both the current and voltage electrodes were filled with 3 M KCl, and oocytes were clamped at a holding potential of −60 mV. Data were collected at 50 Hz and filtered at 20 Hz. The oocytes were bath-perfused with Ringer's solution (115 mM NaCl, 10 mM HEPES, 2.5 mM KCl, 1.8 mM CaCl2, pH 7.3), and agonist solutions were delivered from a 96-well drug plate using disposable tips. Flow rates were set at 2 mL/min, with each drug or control solution delivered in 12 s durations, followed˜by 181 s washouts with Ringer's unless noted otherwise.
Experimental Protocols and Data Analysis
Responses of human alpha-7 receptors to agonists were measured as both peek current and net charge measured over a 120 s period beginning with the compound application (Papke and Papke, 2002). […] In experiments involving positive allosteric modulators (PAMs), the fast desensitization of alpha-7 was eliminated, allowing peak currents to be used as a valid measurement of the receptor-mediated responses (Wang et al., 2012; Williams et al., 2011).
Oocytes received two control ACh applications prior to receiving any drug in order to establish a steady reference response, and they received one or more control ACh applications at the end of all experiments. For experiments involving drug incubation through bath applications, all responses were normalized to the average of two ACh control responses taken immediately prior to the switch of bath solution, for each cell individually. These normalization procedures had the effect of compensating for differing levels of receptor expression among the multiple oocytes used in each experiment. Each experiment was conducted on at least four oocytes, with mean values and standard errors (S.E.M.) calculated from their normalized responses. […]

T1 sequence (P36544 23-502): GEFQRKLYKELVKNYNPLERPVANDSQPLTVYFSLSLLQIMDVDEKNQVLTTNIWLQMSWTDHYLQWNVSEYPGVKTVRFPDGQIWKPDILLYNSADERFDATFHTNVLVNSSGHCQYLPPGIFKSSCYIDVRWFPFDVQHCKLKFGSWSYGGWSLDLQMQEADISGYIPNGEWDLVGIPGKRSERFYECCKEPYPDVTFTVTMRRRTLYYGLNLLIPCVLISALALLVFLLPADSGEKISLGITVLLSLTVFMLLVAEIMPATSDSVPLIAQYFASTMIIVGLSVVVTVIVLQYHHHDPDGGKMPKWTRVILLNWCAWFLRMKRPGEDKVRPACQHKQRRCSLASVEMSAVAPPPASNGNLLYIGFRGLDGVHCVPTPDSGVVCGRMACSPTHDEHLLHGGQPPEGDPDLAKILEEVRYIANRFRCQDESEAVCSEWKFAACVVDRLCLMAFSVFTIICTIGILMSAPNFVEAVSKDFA

| Charge Alone | Charge +C | 'ago' component / ago-PAM activity (in words) | Compound |
| --- | --- | --- | --- |
| Inactive | Inactive |  | O=S(=O)(NCC1CC1)c1ccc2c(c1)[C@H]1C=CC[C@H]1[C@@H](c1ccc(Br)cc1)N2 (stereo in doubt) [Compound 105, 4-(4-bromophenyl)-N-(cyclopropylmethyl)-3a,4,5,9b-tetrahydro-3H-cyclopenta[c]quinoline-8-sulfonamide] |
| Inactive | Inactive |  | CCCNS(=O)(=O)c1ccc2c(c1)[C@H]1C=CC[C@H]1[C@H](c1ccc(Br)cc1)N2 (stereo in doubt) [Compound 106, 4-(4-bromophenyl)-N-propyl-3a,4,5,9b-tetrahydro-3H-cyclopenta[c]quinoline-8-sulfonamide] |
| Inactive | Inactive |  | CCCNS(=O)(=O)c1ccc2c(c1)[C@H]1C=CC[C@H]1[C@@H](c1ccc(Br)cc1)N2 (stereo in doubt) [Compound 107, 4-(4-bromophenyl)-N-propyl-3a,4,5,9b-tetrahydro-3H-cyclopenta[c]quinoline-8-sulfonamide] |
| Inactive | Inactive |  | C=C(C)CNS(=O)(=O)c1ccc2c(c1)[C@H]1C=CC[C@H]1[C@@H](c1ccc(Br)cc1)N2 (stereo in doubt) [Compound 108, 4-(4-bromophenyl)-N-(2-methylallyl)-3a,4,5,9b-tetrahydro-3H-cyclopenta[c]quinoline-8-sulfonamide] |
| Inactive | Inactive |  | CCC(C)CNS(=O)(=O)c1ccc2c(c1)[C@H]1C=CC[C@H]1[C@@H](c1ccc(Br)cc1)N2 (stereo in doubt) [Compound 109, 4-(4-bromophenyl)-N-(2-methylbutyl)-3a,4,5,9b-tetrahydro-3H-cyclopenta[c]quinoline-8-sulfonamide] |
| Inactive | Inactive |  | CCCCNS(=O)(=O)c1ccc2c(c1)[C@H]1C=CC[C@H]1[C@@H](c1ccc(Br)cc1)N2 (stereo in doubt) [Compound 110, 4-(4-bromophenyl)-N-butyl-3a,4,5,9b-tetrahydro-3H-cyclopenta[c]quinoline-8-sulfonamide] |
| Inactive | Inactive |  | CCCNS(=O)(=O)c1ccc2c(c1)[C@H]1C=CC[C@H]1[C@H](c1c(C)c(C)cc(C)c1C)N2 (stereo in doubt) [Compound 111, N-propyl-4-(2,3,5,6-tetramethylphenyl)-3a,4,5,9b-tetrahydro-3H-cyclopenta[c]quinoline-8-sulfonamide] |
| Inactive | Inactive |  | CCCNS(=O)(=O)c1ccc2c(c1)[C@H]1C=CC[C@H]1[C@@H](c1ccccc1)N2 (stereo in doubt) [Compound 112, 4-phenyl-N-propyl-3a,4,5,9b-tetrahydro-3H-cyclopenta[c]quinoline-8-sulfonamide] |
| Inactive | Inactive |  | CS(=O)(=O)Nc1ccc2c(c1)[C@H]1C=CC[C@H]1[C@@H](c1ccc(Br)cc1)N2 (stereo in doubt) [Compound 115, N-(4-(4-bromophenyl)-3a,4,5,9b-tetrahydro-3H-cyclopenta[c]quinolin-8-yl)methanesulfonamide] |
| Inactive | Inactive |  | CC(=O)NS(=O)(=O)c1ccc2c(c1)[C@H]1C=CC[C@H]1[C@@H](c1ccc(Br)cc1)N2 (stereo in doubt) [Compound 116, N-((4-(4-bromophenyl)-3a,4,5,9b-tetrahydro-3H-cyclopenta[c]quinolin-8-yl)sulfonyl)acetamide] |
| Inactive | Inactive |  | O=C(O)c1ccc2c(c1)[C@H]1C=CC[C@H]1[C@@H](c1ccc(Cl)cc1Cl)N2 [Compound 29, 4-(2,4-dichlorophenyl)-3a,4,5,9b-tetrahydro-3H-cyclopenta[c]quinoline-8-carboxylic acid] |
| Inactive | Inactive |  | CC(=O)c1ccc2c(c1)[C@H]1C=CC[C@H]1[C@@H](c1cc3c(cc1Br)OCO3)N2 [Compound 30] |
| Insoluble | Insoluble |  | N#Cc1ccc([C@H]2Nc3ccc(S(N)(=O)=O)cc3[C@H]3C=CC[C@H]32)s1 [Compound 34, 4-(5-cyanothiophen-2-yl)-3a,4,5,9b-tetrahydro-3H-cyclopenta[c]quinoline-8-sulfonamide] |
|  | 5.5 |  | [N-]=[N+]=Nc1c(F)c(F)c([C@H]2Nc3ccc(S(N)(=O)=O)cc3[C@H]3C=CC[C@H]32)c(F)c1F [Compound 43, (3aR,4S,9bS)-4-(4-azido-2,3,5,6-tetrafluorophenyl)-3a,4,5,9b-tetrahydro-3H-cyclopenta[c]quinoline-8-sulfonamide] |
| 14 | 350 |  | NS(=O)(=O)c1ccc2c(c1)[C@H]1C=CC[C@H]1[C@@H](c1ccc(C3(C(F)(F)F)N=N3)cc1)N2 [Compound 44, (3aR,4S,9bS)-4-(4-(3-(trifluoromethyl)-3H-diazirin-3-yl)phenyl)-3a,4,5,9b-tetrahydro-3H-cyclopenta[c]quinoline-8-sulfonamide] |
| Inactive | Inactive |  | NS(=O)(=O)c1ccc2c(c1)[C@@H]1C=CC[C@@H]1[C@H](c1ccc(I)cc1)N2 [Compound 45, (3aS,4R,9bR)-4-(4-iodophenyl)-3a,4,5,9b-tetrahydro-3H-cyclopenta[c]quinoline-8-sulfonamide] |
| 242 | 684 |  | NS(=O)(=O)c1ccc2c(c1)[C@H]1C=CC[C@H]1[C@@H](c1ccc(I)cc1)N2 [Compound 46, (3aR,4S,9bS)-4-(4-iodophenyl)-3a,4,5,9b-tetrahydro-3H-cyclopenta[c]quinoline-8-sulfonamide] |
| Inactive | Inactive |  | [N-]=[N+]=Nc1ccc([C@@H]2Nc3ccc(S(N)(=O)=O)cc3[C@@H]3C=CC[C@@H]32)cc1 [Compound 47, (3aS,4R,9bR)-4-(4-azidophenyl)-3a,4,5,9b-tetrahydro-3H-cyclopenta[c]quinoline-8-sulfonamide] |
| 61 | 764 |  | [N-]=[N+]=Nc1ccc([C@H]2Nc3ccc(S(N)(=O)=O)cc3[C@H]3C=CC[C@H]32)cc1 [Compound 48, (3aR,4S,9bS)-4-(4-azidophenyl)-3a,4,5,9b-tetrahydro-3H-cyclopenta[c]quinoline-8-sulfonamide] |
| 20 | 67 | moderate ago-PAM activity | NS(=O)(=O)c1ccc2c(c1)[C@H]1C=CC[C@H]1[C@@H](c1ccc(OCc3ccccc3)cc1)N2 [Compound 50, (3aR,4S,9bS)-4-(4-(benzyloxy)phenyl)-3a,4,5,9b-tetrahydro-3H-cyclopenta[c]quinoline-8-sulfonamide] |
|  | 10 |  | NS(=O)(=O)c1ccc2c(c1)[C@H]1C=CC[C@H]1[C@@H](c1cccnc1)N2 [Compound 51, 4-(pyridin-3-yl)-3a,4,5,9b-tetrahydro-3H-cyclopenta[c]quinoline-8-sulfonamide] |
| Inactive | Inactive |  | O=S(=O)(c1ccc2c(c1)[C@H]1C=CC[C@H]1[C@@H](c1ccc(Br)cc1)N2)N1CCC1 [Compound 54, 8-(azetidin-1-ylsulfonyl)-4-(4-bromophenyl)-3a,4,5,9b-tetrahydro-3H-cyclopenta[c]quinolone] |
| Inactive | Inactive |  | O=S(=O)(c1ccc2c(c1)[C@@H]1C=CC[C@@H]1[C@H](c1ccc(Br)cc1)N2)N1CCCC1 [Compound 56, (3aS,4R,9bR)-4-(4-bromophenyl)-8-(pyrrolidin-1-ylsulfonyl)-3a,4,5,9b-tetrahydro-3H-cyclopenta[c]quinolone] |
